Experimental data published in patent US20120202756A1, “USE OF PRODRUGS TO AVOID GI MEDIATED ADVERSE EVENTS” (priority 2009, published 2012).
In brackets after ≈: the same amount, converted by molar mass. Several values for one entry are separate records, joined by “and”; a condition that tells them apart may be missing. Equal entries are not always repeated. Where two headings read alike, the source gives them in different places.

How the values were obtained:
[1] = tested on: Peptostreptococcus anaerobius; assay: MIC agar dilution; format: cell-based; settings: NCTC11460
[2] = tested on: Bifidobacterium longum; assay: MIC agar dilution; format: cell-based; settings: NCTC11818
[3] = tested on: Clostridium sporogenes; assay: MIC agar dilution; format: cell-based; settings: ATCC3584, ATCC 3584
[4] = tested on: Campylobacter jejuni; assay: MIC agar dilution
[5] = tested on: Bacteroides fragilis; assay: MIC agar dilution
[6] = tested on: Clostridium novyi; assay: MIC agar dilution; format: cell-based; settings: ATCC19402
[7] = tested on: Veillonella parvula; assay: MIC agar dilution; format: cell-based; settings: NCTC11810
[8] = tested on: Bacteroides thetaiotamicron; assay: MIC agar dilution; format: cell-based
[9] = tested on: Bifidobacterium adolescentis; assay: MIC agar dilution; format: cell-based; settings: NCTC11814
[10] = tested on: Clostridium perfringens; assay: microbe, parasite or virus in culture; format: cell-based
[11] = tested on: Fusobacterium necrophorum; assay: MIC agar dilution; format: cell-based; settings: clinical isolate
[12] = tested on: Peptostreptococcus micros; assay: MIC agar dilution; format: cell-based; settings: Parvimonas micra; clinical isolate
[13] = tested on: Veillonella atypical; assay: MIC agar dilution; format: cell-based; settings: NCTC11830
[14] = tested on: Campylobacter coli; assay: MIC agar dilution
[15] = tested on: Prevotella denticola; assay: MIC agar dilution; format: cell-based; settings: clinical isolate
[16] = tested on: Clostridium bifermentans; assay: MIC agar dilution; format: cell-based; settings: Paraclostridium bifermentans, ATCC638
[17] = tested on: Helicobacter pylori; assay: MIC agar dilution
[18] = tested on: Eggerthella lenta; assay: MIC agar dilution; format: cell-based; settings: ATCC43055, ATCC 43055
[19] = Bioavailability of metronidazole from its prodrugs in the rat; settings: for Tmax: male, Sprague Dawley, rat, in vivo, po; for T>50% Cmax: period plasma metronidazole at or above 50% of Cmax, oral 1 mg equivalents/kg
Protocol: In order to confirm successful absorption and subsequent hydrolysis of these metronidazole prodrugs, a comparative bioavailability study was undertaken in the rat Methods—Three groups of five male Sprague Dawley rats were orally dosed with either metronidazole itself or its succinyl valine or glutaryl para-amino benzoic acid ester prodrugs. Serial tail vein blood samples were subsequently collected via an indwelling cannuala into EDTA tubes containing a stabilising cocktail (including 6 mg/mL NaF) to prevent post collection enzymic hydrolysis of the prodrug. Separated plasma samples were subjected to bioanalysis for both the prodrugs and metronidazole itself using a qualified LC/MS-MS bioanalytical method.

[20] = tested on: Porphyromonas endodontalis; assay: MIC agar dilution; format: cell-based; settings: clinical isolate
[21] = tested on: Clostridium difficile; assay: MIC agar dilution; format: cell-based; settings: Clostridioides difficile
[22] = tested on: Veillonella spp.; assay: MIC agar dilution; format: cell-based; settings: clinical isolate
[23] = tested on: Bifidobacterium dentium; assay: MIC agar dilution; format: cell-based; settings: NCTC11816
[24] = tested on: Prevotella bivia; assay: MIC agar dilution; format: cell-based; settings: ATCC29303, ATCC 29303
[25] = tested on: Porphyromonas assacharolyticus; assay: MIC agar dilution; format: cell-based; settings: clinical isolate
[26] = tested on: Peptostreptococcus magnus; assay: MIC agar dilution; format: cell-based; settings: Finegoldia magna; clinical isolate
[27] = tested on: Propionibacterium acnes; assay: MIC agar dilution
[28] = tested on: Clostridium sordellii; assay: MIC agar dilution; format: cell-based; settings: Paraclostridium sordellii, NCTC13356; NCTC 13356
[29] = clinical isolate (first listed, r83)
[30] = clinical isolate (second listed, r85)
[31] = NCTC13366, NCTC 13366 - NAP1/027
[32] = antibiotic-susceptible clinical isolate
[33] = clinical isolate MIC clindamycin 0.5 mg/L

| SMILES | MIC [1] [µg/mL] | MIC [2] [µg/mL] | MIC [3] [µg/mL] | MIC [4] [µg/mL] | MIC ([4]; ATCC33560) [µg/mL] | MIC [5] [µg/mL] | MIC ([5]; ATCC25285) [µg/mL] | MIC [6] [µg/mL] | MIC [7] [µg/mL] | MIC ([8]; ATCC29741) [µg/mL] | MIC ([8]; NCTC10582) [µg/mL] | MIC [9] [µg/mL] | MIC [10] [µg/mL] | MIC ([10]; ATCC13124) [µg/mL] | MIC [11] [µg/mL] | MIC [12] [µg/mL] | MIC [13] [µg/mL] | MIC [14] [µg/mL] | MIC ([14]; ATCC33559) [µg/mL] | MIC [15] [µg/mL] | also measured |
| --- | --- | --- | --- | --- | --- | --- | --- | --- | --- | --- | --- | --- | --- | --- | --- | --- | --- | --- | --- | --- | --- |
| Cc1ncc([N+](=O)[O-])n1CCOC(=O)CCCC(=O)Nc1ccc(C(=O)O)cc1 [Metronidazole glutaryl PABA ester, Metronidazole-(glutaryl-PABA) ester] | 16 (≈ 39.6 µM) | > 64 | 8 (≈ 19.8 µM) | > 64 | 64 (≈ 158 µM) | > 64 | > 64 | 32 (≈ 79.1 µM) | > 64 | > 64 | > 64 | > 64 | > 64 | > 64 | 8 (≈ 19.8 µM) | 8 (≈ 19.8 µM) | > 64 | > 64 | 64 (≈ 158 µM) | 64 (≈ 158 µM) | MIC [16]: 64 µg/mL (≈ 158 µM); MIC [17, 29]: 32 µg/mL (≈ 79.1 µM); MIC [17, 30]: 16 µg/mL (≈ 39.6 µM); MIC [18]: 32 µg/mL (≈ 79.1 µM); Tmax [19]: 2.0 h; MIC [20]: 4 µg/mL (≈ 9.89 µM); MIC ([21]; ATCC700057, ATCC 700057): 8 µg/mL (≈ 19.8 µM); MIC [21, 31]: 16 µg/mL (≈ 39.6 µM); MIC [21, 32]: 8 µg/mL (≈ 19.8 µM); MIC [22]: > 64 µg/mL; MIC [23]: > 64 µg/mL; MIC [24]: 32 µg/mL (≈ 79.1 µM); MIC [25]: 8 µg/mL (≈ 19.8 µM); MIC [26]: 16 µg/mL (≈ 39.6 µM); MIC ([27]; Cutibacterium acnes): > 64 µg/mL; MIC [27, 33]: >64 µg/mL; MIC [28]: 64 µg/mL (≈ 158 µM) |
| Cc1ncc([N+](=O)[O-])n1CCOC(=O)CCC(=O)N[C@H](C(=O)O)C(C)C [Metronidazole succinyl valine ester, Metronidazole-[succinyl-(S)-valine]ester] | 32 (≈ 86.4 µM) | > 64 | 32 (≈ 86.4 µM) | > 64 | > 64 | > 64 | > 64 | > 64 | > 64 | > 64 | > 64 | > 64 | > 64 | > 64 | 32 (≈ 86.4 µM) | 64 (≈ 173 µM) | > 64 | > 64 | > 64 | > 64 | MIC [16]: > 64 µg/mL; MIC [17, 29]: 64 µg/mL (≈ 173 µM); MIC [17, 30]: 64 µg/mL (≈ 173 µM); MIC [18]: > 64 µg/mL; Tmax [19]: 2.0 h; MIC [20]: > 64 µg/mL; MIC ([21]; ATCC700057, ATCC 700057): 32 µg/mL (≈ 86.4 µM); MIC [21, 31]: 64 µg/mL (≈ 173 µM); MIC [21, 32]: 32 µg/mL (≈ 86.4 µM); MIC [22]: > 64 µg/mL; MIC [23]: > 64 µg/mL; MIC [24]: > 64 µg/mL; MIC [25]: > 64 µg/mL; MIC [26]: 64 µg/mL (≈ 173 µM); MIC ([27]; Cutibacterium acnes): > 64 µg/mL; MIC [27, 33]: >64 µg/mL; MIC [28]: > 64 µg/mL |
| Cc1ncc([N+](=O)[O-])n1CCO [Metronidazole, metronidazole, reference compound] | 0.12 (≈ 0.701 µM) | 8 (≈ 46.7 µM) | 0.06 (≈ 0.351 µM) | 8 (≈ 46.7 µM) | 1 (≈ 5.84 µM) | 0.5 (≈ 2.92 µM) | 0.5 (≈ 2.92 µM) | 0.5 (≈ 2.92 µM) | 4 (≈ 23.4 µM) | 1 (≈ 5.84 µM) | 1 (≈ 5.84 µM) | 32 (≈ 187 µM) | 2 (≈ 11.7 µM) | 1 (≈ 5.84 µM) | 0.12 (≈ 0.701 µM) | 0.25 (≈ 1.46 µM) | 8 (≈ 46.7 µM) | 1 (≈ 5.84 µM) | 0.5 (≈ 2.92 µM) | 0.5 (≈ 2.92 µM) | MIC [16]: 0.25 µg/mL (≈ 1.46 µM); MIC [17, 29]: 2 µg/mL (≈ 11.7 µM); MIC [17, 30]: 2 µg/mL (≈ 11.7 µM); MIC [18]: 0.5 µg/mL (≈ 2.92 µM); time of peak plasma levels after dosing ([19]; oral, male rats): ≤ 15 min; T>50% Cmax ([19]; male rats, individual animals): 1.5 h and 1.75 h and 2.75 h and 3.0 h and 2.5 h; T>50% Cmax ([19]; male rats, mean): 2.3 ± 0.65 h and 2.3 h; MIC [20]: 1 µg/mL (≈ 5.84 µM); MIC ([21]; ATCC700057, ATCC 700057): 0.12 µg/mL (≈ 0.701 µM); MIC [21, 31]: 0.12 µg/mL (≈ 0.701 µM); MIC [21, 32]: 0.06 µg/mL (≈ 0.351 µM); MIC [22]: 2 µg/mL (≈ 11.7 µM); MIC [23]: 16 µg/mL (≈ 93.5 µM); MIC [24]: 1 µg/mL (≈ 5.84 µM); MIC [25]: 0.5 µg/mL (≈ 2.92 µM); MIC [26]: 0.25 µg/mL (≈ 1.46 µM); MIC ([27]; Cutibacterium acnes): > 64 µg/mL; MIC [27, 33]: >64 µg/mL; MIC [28]: 0.5 µg/mL (≈ 2.92 µM) |
